Experimental data: ChEMBL document CHEMBL2401631, “Small molecules inhibit the interaction of Nrf2 and the Keap1 Kelch domain through a non-covalent mechanism” (Bioorg Med Chem, 2013)
Calls of active or inactive are those of the source. The calls are words filed in the database; no cut-off is given here.

Experiments:
Assay type in all cases: cell-based
[1] = target: T1, Nuclear factor erythroid 2-related factor 2 (Homo sapiens) (UniProt Q16236); assay: Activation of Nrf2 in human DLD1 cells assessed as stabilization of Nrf2 protein at 20 uM after 48 hrs by Western blot analysis; details: DLD-1
T1 sequence (whole entry): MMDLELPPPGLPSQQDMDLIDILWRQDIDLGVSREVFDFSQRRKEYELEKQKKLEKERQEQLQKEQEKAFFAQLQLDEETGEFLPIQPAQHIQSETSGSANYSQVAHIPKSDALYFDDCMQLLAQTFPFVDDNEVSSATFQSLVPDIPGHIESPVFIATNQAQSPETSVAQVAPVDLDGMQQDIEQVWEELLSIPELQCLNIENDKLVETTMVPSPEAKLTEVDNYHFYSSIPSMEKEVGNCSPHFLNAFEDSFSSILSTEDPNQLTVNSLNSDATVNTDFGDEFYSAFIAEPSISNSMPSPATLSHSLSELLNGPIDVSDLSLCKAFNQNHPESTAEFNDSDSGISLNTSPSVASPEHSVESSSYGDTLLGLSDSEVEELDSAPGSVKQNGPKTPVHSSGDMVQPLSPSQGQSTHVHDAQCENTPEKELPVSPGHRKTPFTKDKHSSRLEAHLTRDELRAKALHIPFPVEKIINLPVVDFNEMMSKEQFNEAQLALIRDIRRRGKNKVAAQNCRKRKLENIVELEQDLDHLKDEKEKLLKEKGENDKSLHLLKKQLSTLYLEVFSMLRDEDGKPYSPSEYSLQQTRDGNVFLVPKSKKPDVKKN

[2] = target: T1, Nuclear factor erythroid 2-related factor 2 (Homo sapiens); assay: Activation of Nrf2 in human DLD1 cells assessed as increase of NQO1 protein level at 20 uM after 48 hrs by Western blot analysis; details: DLD-1
[3] = target: Kelch-like ECH-associated protein 1 (Homo sapiens) (UniProt Q14145); assay: Binding affinity to human recombinant Kelch-DC domain of Keap1 (321 to 609) expressed in HEK293T cells assessed as covalent adduct formation with cysteines at 1 mM after 15 hrs by 2D-FIDA assay; details: HEK-293T
[4] = target: T1, Nuclear factor erythroid 2-related factor 2 (Homo sapiens); assay: Activation of Nrf2 in human DLD1 cells after 24 to 48 hrs by luciferase reporter gene assay; details: DLD-1

Kelch-like ECH-associated protein 1 (Homo sapiens), sequence (Q14145 whole entry, the tested form may be a part): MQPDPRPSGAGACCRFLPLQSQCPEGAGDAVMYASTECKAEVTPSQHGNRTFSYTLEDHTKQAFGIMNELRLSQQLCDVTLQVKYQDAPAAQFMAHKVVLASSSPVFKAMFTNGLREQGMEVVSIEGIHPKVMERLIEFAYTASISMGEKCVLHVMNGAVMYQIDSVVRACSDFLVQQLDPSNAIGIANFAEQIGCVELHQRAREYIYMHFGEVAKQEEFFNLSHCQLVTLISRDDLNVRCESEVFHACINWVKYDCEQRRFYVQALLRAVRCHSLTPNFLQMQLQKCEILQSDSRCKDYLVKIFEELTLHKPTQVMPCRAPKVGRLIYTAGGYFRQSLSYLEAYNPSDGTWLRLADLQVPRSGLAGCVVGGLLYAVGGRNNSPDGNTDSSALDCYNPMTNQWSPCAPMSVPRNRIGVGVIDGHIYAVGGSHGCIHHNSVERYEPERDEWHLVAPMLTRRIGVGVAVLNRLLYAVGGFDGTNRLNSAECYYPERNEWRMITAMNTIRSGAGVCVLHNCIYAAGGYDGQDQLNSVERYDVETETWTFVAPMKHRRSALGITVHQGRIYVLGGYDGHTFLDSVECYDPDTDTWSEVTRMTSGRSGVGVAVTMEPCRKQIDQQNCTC

| Structure (SMILES) | Activity [1] | Activity [2] | Activity [3] | Activity [4] |
| --- | --- | --- | --- | --- |
| COc1ccc(S(=O)(=O)Nc2ccc(NS(=O)(=O)c3ccc(OC)cc3)c3ccccc23)cc1 | Active | Active | inactive | Dose-dependent effect |
| COC(=O)/C=C/C(=O)OC | Active | Active | Active | Dose-dependent effect |
| COC(=O)/C=C/C(=O)O |  |  |  | Dose-dependent effect |
